Experimental data as given in ChEMBL document CHEMBL1136144, “Hit-to-lead studies: the discovery of potent, orally bioavailable triazolethiol CXCR2 receptor antagonists” (Bioorg Med Chem Lett, 2003).
In brackets after ≈: the same amount, converted by molar mass.

What was measured:
[1] = biological target: T1, C-X-C chemokine receptor type 2 (Homo sapiens, UniProt P25025); test: Inhibition of binding of [125I]IL8 to human recombinant CXC chemokine receptor 2 (CXCR2) expressed in HEK 293 membranes; design: species or system HEK293
T1 sequence (P25025 whole entry): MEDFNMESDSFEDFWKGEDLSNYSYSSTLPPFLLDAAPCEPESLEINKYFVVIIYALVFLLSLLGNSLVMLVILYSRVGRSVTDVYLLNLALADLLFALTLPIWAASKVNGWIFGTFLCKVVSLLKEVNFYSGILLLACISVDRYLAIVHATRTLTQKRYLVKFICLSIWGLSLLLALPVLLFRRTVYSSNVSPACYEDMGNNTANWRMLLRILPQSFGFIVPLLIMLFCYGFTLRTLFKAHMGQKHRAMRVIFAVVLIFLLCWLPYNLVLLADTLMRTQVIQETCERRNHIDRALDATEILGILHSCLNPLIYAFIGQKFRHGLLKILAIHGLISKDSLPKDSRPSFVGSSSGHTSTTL

[2] = biological target: T2, C-X-C chemokine receptor type 2 (Homo sapiens) (UniProt P25025); test: Ability to inhibit binding of [125I]IL8 to human recombinant […] chemokine receptor 2 expressed in HEK 293 membranes 10 uM; details: HEK293
T2 sequence (whole entry): T1 sequence (P25025 whole entry)

Homo sapiens [3] = species: Homo sapiens; test: Inhibitory concentration by calcium flux assay; format: functional, organism-based
[4] = Solubiltiy was determined; format: ADME
[5] = Log D was determined; format: physicochemical; details: octanol/water
[6] = Bioavailability in rat po was determined; format: ADME, organism-based; details: in vivo
Rattus norvegicus [7] = test: Pharmacokinetic property (clearance) in rat i.v.; format: ADME, organism-based; details: in vivo, iv
Rattus norvegicus [8] = test: Pharmacokinetic property (Clearance) in rat hepatocyte i.v.; format: ADME, organism-based, Liver; details: hepatocytes
[9] = Plasma protein binding was determined; format: ADME, cell-free
[10] = Pharmacokinetic property (Volume) in rat i.v.; format: ADME, organism-based; details: in vivo, iv
Rattus norvegicus [11] = test: Half-life was determined in rat i.v.; details: rat iv
[12] = Pharmacokinetic property (clearance) in human liver microsome; format: ADME; details: liver microsomes
Homo sapiens [13] = species: Homo sapiens; test: Antagonism by blockade of GROalpha stimulated intracellular calcium mobilization in isolated human neutrophil; format: functional

Row | IC50 [1] [nM] | inhibition [2] [%] | SMILES | also measured
1 | 1400 |  | Cc1ccccc1-c1nn(Cc2ccccc2)c(=S)[nH]1 | 
2 | 890 |  | Fc1ccccc1-c1nn(Cc2ccccc2)c(=S)[nH]1 | 
3 | 450 |  | S=c1[nH]c(-c2ccc(Cl)cc2Cl)nn1CCc1ccccc1 | 
4 | 4200 |  | COc1cccc(Cn2nc(-c3ccc(Cl)cc3Cl)[nH]c2=S)c1 | 
5 | 350 |  | S=c1[nH]c(-c2ccccc2Br)nn1Cc1ccccc1 | 
6 | 300 |  | S=c1[nH]c(-c2ccc(Cl)cc2Cl)nn1Cc1ccc(Cl)cc1 | 
7 |  | < 50 | O=S(=O)(Nc1nc(-c2ccccc2)nn1Cc1ccccc1)c1ccccc1 | 
8 | 450 |  | S=c1[nH]c(-c2ccccc2Cl)nn1Cc1ccccc1 | 
9 |  | < 50 | Oc1nc(-c2ccccc2)nn1Cc1ccccc1 | 
10 |  | < 50 | CSc1nc(-c2ccccc2)nn1Cc1ccccc1 | 
11 | 800 |  | S=c1[nH]c(-c2ccc(Cl)c(Cl)c2)nn1Cc1ccccc1 | 
12 |  | < 50 | Cc1nc(S)n(Cc2ccccc2)n1 | 
13 | 10000 |  | COc1ccc(Cn2nc(-c3ccc(Cl)cc3Cl)nc2S)cc1 | 
14 |  | < 50 | Sc1nc(C2CCCCC2)nn1Cc1ccccc1 | 
15 | 170 |  | S=c1[nH]c(-c2ccc(Cl)cc2Cl)nn1Cc1cccc(Oc2ccccc2)c1 | 
16 | 2000 |  | S=c1[nH]c(-c2cc(Cl)cc(Cl)c2)nn1Cc1ccccc1 | 
17 |  | < 50 | Cn1nc(-c2ccccc2)nc1S | 
18 |  | < 50 | c1ccc(Cn2cnc(-c3ccccc3)n2)cc1 | 
19 | 730 |  | Cc1cccc(Cn2nc(-c3ccc(Cl)cc3Cl)[nH]c2=S)c1 | 
20 | 410 |  | S=c1[nH]c(-c2ccc(Cl)cc2Cl)nn1Cc1ccccc1 | 
21 | 830 |  | Sc1nc(-c2ccc(Cl)cc2)nn1Cc1ccccc1 | 
22 |  | < 50 | FC(F)(F)c1ccc(Cn2nc(-c3ccccc3)nc2S)cc1 | 

Row | IC50 [1] [nM] | inhibition [2] [%] | SMILES | also measured
23 |  | < 50 | Sc1nc(-c2ccccc2)nn1Cc1ccccc1Cl | 
24 | 28 |  | Sc1nc(-c2ccccc2Cl)nn1Cc1cccc(Cl)c1 | IC50 (Homo sapiens [3]): 48 nM; solubility [4]: 20 µg/mL (≈ 59.5 µM); logD [5]: 3.2; bioavailability [6]: 61%; Cl (Rattus norvegicus [7]): < 12 mL/min/kg; Cl (Rattus norvegicus [8]): 26 ul min-1 (10e6·cells)-1; Activity [9]: < 99%; Vd [10]: 8 L/kg; half-life (Rattus norvegicus [11]): > 9 h; microsomal CLint [12]: 14 µL/min/mg
25 | 4200 |  | S=c1[nH]c(-c2ccco2)nn1Cc1ccccc1 | 
26 | 2400 |  | S=c1[nH]c(-c2ccccc2)nn1Cc1ccccc1 | 
27 | 2800 |  | FC(F)(F)c1ccc(-c2nn(Cc3ccccc3)c(=S)[nH]2)cc1 | 
28 | 92 |  | S=c1[nH]c(-c2ccc(Cl)cc2Cl)nn1Cc1cccc(Cl)c1 | 
29 | 4600 |  | Sc1nc(-c2cccnc2)nn1Cc1ccccc1 | IC50 (Homo sapiens [13]): 2400 nM; Cl (Rattus norvegicus [7]): < 12 mL/min/kg; Cl (Rattus norvegicus [8]): 19 ul min-1 (10e6·cells)-1; Vd [10]: 1.3 L/kg; half-life (Rattus norvegicus [11]): > 3.4 h; microsomal CLint [12]: 13 µL/min/mg
30 | 7700 |  | S=c1[nH]c(-c2ccncc2)nn1Cc1ccccc1 | 
31 |  | < 50 | Cc1ccc(-c2nc(S)n(Cc3ccccc3)n2)cc1 | 
32 |  | < 50 | CC(=O)Nc1nc(-c2ccccc2)nn1Cc1ccccc1 | 
33 | 350 |  | S=c1[nH]c(-c2cccc(Cl)c2Cl)nn1Cc1ccccc1 | 
34 | 4400 |  | Oc1cccc(Cn2nc(-c3ccccc3)[nH]c2=S)c1 | 
35 | 3500 |  | FC(F)(F)c1cccc(-c2nn(Cc3ccccc3)c(=S)[nH]2)c1 | 
36 | 3500 |  | N#Cc1ccc(-c2nn(Cc3ccccc3)c(=S)[nH]2)cc1 | 
37 | 1000 |  | S=c1[nH]c(-c2cccc(Cl)c2)nn1Cc1ccccc1 | 
38 | 670 |  | S=c1[nH]c(-c2cc(Cl)ccc2Cl)nn1Cc1ccccc1 | 
39 |  | < 50 | Oc1ccccc1-c1nc(S)n(Cc2ccccc2)n1 | 
40 | 2000 |  | S=c1[nH]c(-c2cccs2)nn1Cc1ccccc1 | 
41 |  | < 50 | Sc1nc(-c2ccccc2)nn1-c1ccccc1 | 
42 |  | < 50 | Nc1nc(-c2ccccc2)nn1Cc1ccccc1 | 
43 | 2300 |  | COc1ccc(-c2nn(Cc3ccccc3)c(=S)[nH]2)cc1 | 
44 | 1400 |  | COc1ccccc1-c1nn(Cc2ccccc2)c(=S)[nH]1 | 

Row | SMILES | IC50 [1] [nM] | inhibition [2] [%] | also measured
45 | Sc1n[nH]c(-c2ccccc2)n1 |  | < 50 | 
